“Also recorded” adds a separate entry of the source.
Tests used:
TssK [1] = test: Isothermal titration calorimetry (ITC), TssK-WT; format: binding, enteroaggregative Escherichia coli (EAEC); conditions: 25°C
Procedure: To evaluate the direct interaction between the BCP and its target TssK, we performed isothermal titration calorimetry (ITC) experiments. The wild-type BCP and TssK interact with an observable affinity (KD) of 60 μM (Fig. 5A).
The working buffer for both proteins and peptide was 50 mM HEPES (pH 7.0), 150 mM NaCl to avoid buffer mismatch. The experiments were performed at 25°C using the MicroCal PEAQ-ITC instrument (Malvern Panalyticals, Malvern, UK) in duplicate with 19 injections, first with an initial injection of 0.4 μl followed by 18 injections of 2 μl. Two assays were performed. In the first, 25 μM WT TssK ligand was in the cell and 1 mM WT BCP analyte was in the syringe. In the second, 25 μM TssK L14A ligand was in the cell and 1 mM WT BCP analyte was in the syringe. The reaction was performed with a constant stirring speed of 750 rpm; each injection lasted for 4 s with a 150-s space between injections. A constant heat control (offset) was removed from the raw data to account for heat dilution before integration. The data were fitted using the One Set of Sites model in the PEAQ-ITC analysis software.

TssK [2] = test: NMR peptide-TssK interaction (1H-15N HSQC, 1D 1H); format: binding, enteroaggregative Escherichia coli (EAEC)
Procedure: (§1) All NMR experiments were recorded at 300 K on a Bruker Avance-II 600 MHz spectrometer equipped with a cryoprobe at the IMM (Institut de Microbiologie de la Mediterranée) NMR platform. The 450-μl peptide sample tube was prepared at 1.8 mM in KPO4 buffer (50 mM KPO4 [pH 6.9], 150 mM NaCl) complemented with 30 μl D2O. 1D ^1H-^1H-TOCSY, ^1H-NOESY, and ^1H-^15N HSQC spectra (F2 = 2048; F1 = 128; NS = 384) (NS is the number of scans [accumulation] for the experiment; F2 is the sweep width; F1 is the Fourier number that defines the 2D spectrum dimensions and its digital resolution) were recorded using default pulse sequences as provided by the manufacturer. For the peptide-TssK interaction experiments, 200 μl of a 410 μM stock of TssK was added to the same sample tube (1.2 mM peptide and 140 μM TssK [final concentration]), and all NMR spectra were recorded with the addition of longer ^1H-^15N HSQC spectrometry (NS = 1,024). All spectra were transformed and the figures were generated using Bruker Topspin 4.0.9.

[3] = NMR of the free cyclic peptide; format: physicochemical; conditions: 1H-NOESY, 1.8 mM peptide, 50 mM KPO4 pH 6.9, 150 mM NaCl, 300 K
Procedure: as §1

EAEC = test: Bacterial growth / toxicity of the peptide; format: cell-based, enteroaggregative Escherichia coli (EAEC); conditions: up to 1 mM, EAEC TssK-GFP in SIM medium, OD at 600 nm; biological triplicates
[4] = test system: TssK-sfGFP foci in EAEC (assembled baseplates); format: cell-based, enteroaggregative Escherichia coli (EAEC)
Procedure: Fluorescence microscopy experiments were performed as previously described ([97], [98]). An overnight culture in LB of EAEC strain with a chromosomal GFP fusion to TssK was diluted 1/200 in SIM medium and grown at 37°C until the culture reached an A600 of ∼0.8. Ten optical density units (ODU) was pelleted for 10 min at 3,500 × g, resuspended at 1 ODU/ml in the same SIM medium supplemented with 0.8 M NaCl, and equilibrated for 1 h at room temperature. Cells were pelleted for 10 min at 3,500 × g, resuspended in 100 μl of classical SIM without NaCl supplemented with 1 mM peptide of buffer, and incubated for 20 min at room temperature. Cells were diluted in classical SIM medium at 0.4 ODU/ml and incubated at 37°C 160 rpm until the absorbance again reached ∼0.8. Ten ODU was harvested and resuspended in fresh SIM medium. Cell mixtures were spotted on a thin pad of SIM medium supplemented with 2% agarose, covered with a coverslip, and incubated for 20 to 30 min at room temperature before microscopy acquisition. Fluorescence microscopy was performed with a Nikon Eclipse Ti2 microscope equipped with a 100× objective (numerical aperture, 1.45), an Orca-Fusion digital camera (Hamamatsu), and a perfect focus system (PFS) to automatically maintain focus so that the point of interest within a specimen is kept in sharp focus at all times despite mechanical or thermal perturbations. All fluorescence images were acquired in Hilo mode using an Ilas2 TIRF module (Gataca Systems). Exposure times were typically 100 ms for phase contrast and 100 ms using the GFP channel. For image treatment, noise and background were reduced by filtering large structures down to 40 pixels in the FFT Bandpass Filter function of ImageJ ([102]). The GFP foci were automatically detected using the MicrobeJ plugin ([103]).

## SRPVMG-SRPVMG-SRPVMG (head to tail) [BCP, biomimetic cyclic peptide SRPVMG-SRPVMG-SRPVMG mimicking TssG foot 1]
TssK [1]; ITC signature plot, TssK-WT with BCP, pH 7.0
  ITC binding signature: enthalpy / ΔG: driven by a favorable enthalpy; also recorded: enthalpy-driven interaction with a favorable ΔG
TssK [1]; ITC, 25 μM TssK-WT in cell, 1 mM BCP in syringe, 50 mM HEPES pH 7.0, 150 mM NaCl, duplicate, One Set of Sites fit, read-out: observable affinity (KD)
  Kd: 60 µM
TssK [2]; 1 part TssK to 10 parts BCP (1.2 mM peptide, 140 μM TssK), 50 mM KPO4 pH 6.9, 150 mM NaCl, 300 K
  1H-15N HSQC correlations after addition of TssK: totally disappear
TssK [2]; 1 part TssK to 10 parts BCP, pH 6.9, 300 K
  1D 1H NMR peptide peaks after addition of TssK: strong broadening of the peptides peaks
[3]
  3D folding / internal structure of free peptide: absence of an internal structure of the free peptide
EAEC
  toxicity for bacteria: not toxic for bacteria up to 1 mM; also recorded: no impact on the growth of EAEC
[4]; 1 mM
  time of maximum effect after peptide entry: within the first hour after peptide entry
[4]; 1 mM peptide, hypo-osmotic shock (osmoporation), vs peptide-free treated cells, ∼500 cells per condition, triplicate
  increase in proportion of bacteria with no observable TssK-sfGFP foci: ~30%
[4]; 1 mM peptide, hypo-osmotic shock, in words, ∼500 cells per condition, triplicate
  number of fluorescent TssK-sfGFP foci: decreased TssK-sfGFP foci compared to both control peptides
[4]; BCP, cells without osmotic shock, compared to cells without peptide
  TssK-GFP foci without osmotic shock: comparable to those without peptide
[4]; EAEC TssK-GFP, SIM medium, NaCl-induced hypo-osmotic shock
  requirement of hypo-osmotic shock for entry into cells: mandatory for BCP entry into cells

Source: publication PMC8406304, “Inhibiting Type VI Secretion System Activity with a Biomimetic Peptide Designed To Target the Baseplate Wedge Complex” (mBio, 2021)
